Assay [1] in a line: DPPH radical scavenging test (colorimetric). The settings on record: concentration scavenging 50% of DPPH radicals; 10 min, room temperature, 517 nm; mean ± SD. How it is done:
Antioxidative properties of the obtained MPA derivatives were assessed chemically using a colorimetric DPPH test. The IC50 value represents the scavenging activity, defined as the concentration of a compound required to scavenge 50% of DPPH radicals.
Briefly, 400 µL solution of each synthesized compound with different concentrations (20–1000 µg/mL) was added to 1.6 mL DPPH solution (100 µmol/L). After shaking, the mixture was incubated at room temperature in the dark for 10 min, and then the absorbance was measured at 517 nm. The %Scavenging activity was calculated by using the formula: […]
The scavenging activity was expressed as IC50 value, defined as the concentration (mM) of compound required for scavenging DPPH radicals by 50%. IC50 values were determined by linear regression analysis using at least three different concentrations in duplicate.
Three different concentrations were prepared for each sample, while each one was analyzed in duplicate. […] The statistical analysis was performed using Tukey’s HSD test (p < 0.05). The statistical software Statistica 10 software (StatSoft Inc., Tulsa, OK, USA) was implemented for this analysis.

A further assay relates to PBMCs. Put plainly: XTT cytotoxicity test on PBMCs. It counts as cell-based. The note with it: Homo sapiens, PBMC, 72 h (ESI: 96 h), viability, mean ± SD, read-out: Relative IC50 PBMCs (XTT). How it is done:
Table 3 presents the IC50 values obtained from the XTT test on PBMCs and the T-Jurkat cell line, using MPA and MMF as standards. These values indicate the concentration of each compound required to reduce the viability of PBMCs (healthy cells) and T-Jurkat cells (T-cell leukemia) by 50% compared to the control. Cells were treated with compounds for 72 h (PBMCs) or 48 h (T-Jurkat), followed by a colorimetric XTT test. The results are illustrated in ESI Fig. S2 as a viability curve in relation to concentration.
Biological evaluation — PBMC and T-Jurkat cells […]
Human peripheral blood mononuclear cells (PBMCs) were isolated from buffy coats provided by anonymous, healthy volunteers with an average age of 35±4 years during routine transfusion procedure. These samples were received by the Authors from the Regional Centre for Blood Donation and Treatment in Gdańsk (Poland). […]
solely for PBMCs isolation. PBMCs were suspended in a complete X-VIVO medium, consisting of X-VIVO20, 10% heat-inactivated human AB serum, penicillin (100 U/ml), and streptomycin ([…]).
MPA derivatives preparation
To achieve the desired concentrations of the tested compounds, the substances were first dissolved in DMSO to reach a final concentration of 0.01 M. The solutions were then diluted in the appropriate additive-free medium (RPMI-1640 for T-Jurkat cells and X-VIVO20 for PBMCs) to obtain […]
Peripheral blood mononuclear cells were isolated by gradient centrifugation, as described previously. Buffy coats were diluted with phosphate-buffered saline (PBS, pH = 7.4, ThermoFisher Scientific) in a 1:1 ratio, layered at Ficoll-Paque™ PLUS (VWR International), and centrifuged at 800 × g for 20 minutes. The PBMC layer was collected and washed twice with PBS (1st wash: 600 × g for 10 minutes; 2nd wash: 600 × g for 5 minutes). Cell amount and viability were assessed using the Bio-Rad TC20™ automated cell counter combined with trypan blue staining.
XTT dye-based in vitro cytotoxicity test
The cytotoxic effects of mycophenolic acid (MPA) derivatives were assessed using an in vitro XTT-based assay (Roche). PBMCs in complete X-VIVO20 medium and T-Jurkat cells in complete RPMI-1640 medium were seeded into 96-well plates at a concentration of 5∙10^5 cells/50 µl per well. 50 µl of tested compounds were added to the experimental wells to achieve final concentrations of 50, 25, 10, 5, 1, 0.1, and 0.01 µM. The background control consisted of the medium without cells, while untreated cells served as the positive control. After incubating for 48 hours for T-Jurkat cells and 96 hours for PBMCs in a humidified atmosphere with 5% CO2 at 37°C, 50 µl of freshly prepared XTT reagent was added to all wells according to the manufacturer's instructions. The plates were then incubated for an additional 24 hours under the same conditions. The conversion of the water-soluble yellow XTT tetrazolium salt to orange formazan was quantified by measuring the optical density (OD) at 450 nm using an Agilent BioTek Epoch Microplate Spectrophotometer (Agilent Technologies), with a reference wavelength of 690 nm. The results were expressed as IC50 values for compounds that […]
inhibited cell viability by more than 50%. […]
PBMCs were suspended in a 15 mL centrifuge tube at a concentration of 10-30 × 10⁶ cells in 1 mL of PBS, then, 2 μL of 1 mM VPD 450 dye solution was added, incubated for 15 min at 37°C, washed with a 9-fold volume of warm PBS and centrifuged at 400 x g for 5 min. Then, the cells were suspended in 10 mL of X-VIVO medium with 10% FBS and centrifuged again at 400 x g for 5 min. After suspending the cells in the complete medium, the staining level was checked using flow cytometry. The cells thus obtained were stimulated with anti-CD3/anti-CD28 antibodies as described previously (see VPD450 dye-based in vitro cell proliferation test). To perform the GMP test, a proper amount of GMP was added to each well to reach its final concentration of 50 μM, and then incubated for 72 hours. Proliferative […]
In general terms: Tetrazolium assays rely on reduction of a dye to a coloured formazan, in cell work by metabolically active cells.

The term IC50 denotes the point on the concentration scale where inhibition reaches its midpoint. Regarding `COC(=O)/C=C/c1ccc(OC(=O)CC/C(C)=C/Cc2c(O)c3c(c(C)c2OC)COC3=O)c(OC)c1` [MP7], the IC50 in assay [1] worked out at 3640 ± 113 µM; in the assay on PBMCs it was 30.43 ± 0.044 µM.

With `C=CCc1ccc(OC(=O)CC/C(C)=C/Cc2c(O)c3c(c(C)c2OC)COC3=O)c(OC)c1` [MP8], the IC50 in assay [1] came to 6900 ± 225 µM; in the assay on PBMCs, 17.782 ± 0.011 µM.

For `COc1c(C)c2c(c(O)c1C/C=C(\C)CCC(=O)Oc1cc(C)ccc1C(C)C)C(=O)OC2` [P2], the IC50 came to 11670 ± 113 µM in assay [1] and 16.349 ± 0.01 µM in the assay on PBMCs.

Take `COc1cc(C=O)ccc1OC(=O)CC/C(C)=C/Cc1c(O)c2c(c(C)c1OC)COC2=O` [MP4]: the IC50 turned out to be 6400 ± 311 µM in assay [1] and 23.484 ± 0.015 µM in the assay with PBMCs.

For `COc1ccccc1OC(=O)CC/C(C)=C/Cc1c(O)c2c(c(C)c1OC)COC2=O` [MP1], the figures for the IC50 (in assay [1]; in the assay on PBMCs) were 23800 ± 411 µM and 14.78 ± 0.016 µM, respectively.

Turning to `COc1c(C)c2c(c(O)c1C/C=C(\C)CCC(=O)Oc1ccc(C=O)cc1)C(=O)OC2` [P5], the results for the IC50 (in assay [1]; in the assay with PBMCs) were 28200 ± 357 µM and 9.948 ± 0.046 µM, respectively.

Turning to `COC(=O)/C=C/c1ccccc1OC(=O)CC/C(C)=C/Cc1c(O)c2c(c(C)c1OC)COC2=O` [P4], the IC50 in assay [1] worked out at 308 ± 31 µM; in the assay on PBMCs, 25.887 ± 0.017 µM.

With `COc1cc(C=O)cc(OC)c1OC(=O)CC/C(C)=C/Cc1c(O)c2c(c(C)c1OC)COC2=O` [MP3], the IC50 in assay [1] was 12200 ± 252 µM; in the assay on PBMCs, 10.59 ± 0.04 µM.

In the case of `COc1c(C)c2c(c(O)c1C/C=C(\C)CCC(=O)Oc1ccc(CCC(C)=O)cc1)C(=O)OC2` [P7], the half-maximal inhibitory concentration (IC50) in assay [1] came to 124 µM; in the assay with PBMCs it was 50.294 ± 0.019 µM.

On to `COc1c(C)c2c(c(O)c1C/C=C(\C)CCC(=O)OCCN1CCOCC1)C(=O)OC2` [MMF, mycophenolate mofetil, reference compound], for which the 50% inhibitory concentration (IC50) in assay [1] turned out to be 19000 ± 279 µM; in the assay with PBMCs it was 16.61 ± 0.041 µM.

Take `COc1c(C)c2c(c(O)c1C/C=C(\C)CCC(=O)Oc1ccc3c(c1)OCO3)C(=O)OC2` [P1]: the values for the half-maximal inhibitory concentration (IC50) (in assay [1]; in the assay on PBMCs) were 43570 ± 380 µM and 125.48 ± 0.025 µM, respectively.

With `C/C=C/c1ccc(OC(=O)CC/C(C)=C/Cc2c(O)c3c(c(C)c2OC)COC3=O)c(OC)c1` [MP9], the IC50 was determined as 373 ± 41 µM in assay [1] and 21.153 ± 0.015 µM in the assay on PBMCs.

With `COc1cccc(OC)c1OC(=O)CC/C(C)=C/Cc1c(O)c2c(c(C)c1OC)COC2=O` [MP2], the IC50 was found to be 3720 ± 230 µM in assay [1] and 22.52 ± 0.039 µM in the assay with PBMCs.

For the molecule `COc1c(C)c2c(c(O)c1C/C=C(\C)CCC(=O)O)C(=O)OC2` [MPA, Mycophenolic acid], the results for the IC50 (in assay [1]; in the assay with PBMCs) were 15730 ± 144 µM and 18.73 ± 0.03 µM, respectively.
